Data as given in PMC12073189, “Synthesis and Evaluation of a Novel Zuranolone Analog with High GABAA Receptor PAM Activity and Excellent Pharmacokinetic Profiles” (Molecules, 2025).
pIC50: −log10 of the molar value. “And” between values parts separate entries of the source, which are not always exact repeats. Equal entries are not always repeated. “Also recorded” adds a separate entry of the source. Where two headings read alike, the source gives them in different places.

Legend:
CYP1A2 = target: T1, CYP1A2 (Homo sapiens, UniProt P05177); assay: Human liver CYP inhibition assay (cocktail, pooled HLM); assay type: in vitro ADME
T1 construct: tissue XenoTech; host or cells: pooled human liver microsomes
T1 sequence (P05177 1-516): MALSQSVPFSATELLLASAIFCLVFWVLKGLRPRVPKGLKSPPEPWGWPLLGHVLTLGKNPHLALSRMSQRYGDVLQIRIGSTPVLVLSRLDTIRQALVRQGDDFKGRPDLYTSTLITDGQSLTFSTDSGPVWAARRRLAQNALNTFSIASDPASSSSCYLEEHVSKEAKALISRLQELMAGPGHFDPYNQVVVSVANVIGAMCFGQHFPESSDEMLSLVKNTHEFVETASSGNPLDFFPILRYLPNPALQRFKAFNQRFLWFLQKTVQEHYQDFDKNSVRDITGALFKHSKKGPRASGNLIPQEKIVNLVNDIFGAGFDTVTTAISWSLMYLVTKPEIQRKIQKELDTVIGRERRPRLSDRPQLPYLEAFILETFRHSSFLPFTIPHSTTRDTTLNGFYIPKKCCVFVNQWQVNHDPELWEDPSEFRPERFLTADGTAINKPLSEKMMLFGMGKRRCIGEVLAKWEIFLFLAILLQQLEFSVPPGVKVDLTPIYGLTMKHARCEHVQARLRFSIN
Method: The main materials used in this experiment were sourced as follows: Zuranolone from BEIWANTABIO Co., Ltd. (Shanghai, China); liver microsomes (rat and human) and CYP isoenzymes (CYP1A2, CYP2C8, CYP2D6, CYP3A4) from XenoTech (Tewksbury, MA, USA); LTK cells from the China Center for Type Culture Collection (CCTCC, Wuhan, China); and CHO cells from the National Certified Cell Bank (Shanghai, China).
The IC50 values of S9 and Zuranolone on CYP isoenzymes (1A2, 2C8, 2D6, 3A4) were determined in pooled HLM using a cocktail approach, as previously reported.

[1] = Brain distribution in rats; assay type: in vivo, rat; settings: i.g. 24.4 μmol/kg
Method: (§1) We quantified S1–S15 and Zuranolone using a UPLC-MS/MS (Agilent 1290 Infinity II UHPLC (Agilent Technologies, Santa Clara, CA, USA) coupled with a QTRAP 5500 MS/MS (ESI source) (SCIEX, Redwood City, CA, USA for MS/MS). The method assessed the content level of S9 and Zuranolone in microsome metabolism and in rat brain tissue and plasma. An ACQUITY UPLC Peptide BEH C18 column (Waters; 50 × 2.1 mm, 1.7 μm; 60 °C; Waters Corporation, Milford, MA, USA) was used with a mobile phase of 0.02% propionic acid in water (A) and acetonitrile (B). The gradient elution of the mobile phase B is carried out as follows: it is 10% from 0 to 0.5 min, 90% from 0.8 to 2.5 min, and 10% from 2.8 to 3.5 min, with a flow rate of 0.40 mL/min. Quantitative analysis was performed on a QTRAP 5500 MS (SCIEX, Redwood City, CA, USA) in positive ionization mode with MRM (multiple reaction monitoring), using progesterone-d9 as the internal standard. MRM transitions and parameters were optimized for each analyte, with collision energies of 25 V (S1–S15), 23 V (Zuranolone), and 30 V (IS), and declustering potentials of 80 V (S1–S15), 90 V (Zuranolone), and 180 V (IS). Other conditions were as follows: curtain gas 10 psi, collision gas ‘medium’, ion spray voltage 5500 V, temperature 500 °C, and ionization source gases 1 and 2 at 50 psi.
Zuranolone was solubilized in 5% DMSO with solutol HS 15 in saline. S9 was solubilized in 10% DMSA with 30% SBECD (Zibo Qianhui Biological Technology Co., Ltd., Zibo, China) in saline. After fasting for 12 h, rats (n = 6 per group) were administered Zuranolone and S9 intragastrically (i.g.) at a dose of 24.4 μmol/kg, and intravenously (i.v.) at 6.1 μmol/kg. Blood samples (200 μL) were collected into 1.5 mL tubes containing heparin at 15 min, 30 min, 1, 2, 3, 4, 6, 8, 12, 24, 48, and 96 h after i.g. or at 5, 15, 30 min, and 1, 2, 3, 4, 6, 8, 12, 24, 48, 96 h after i.v. Plasma was separated by centrifugation for 5 min (8000 rpm, 4 °C) and stored at −80 °C immediately.

[2] = Liver microsome metabolic stability (HLM); assay type: in vitro ADME, human; design: microsomal CLint at 1 μmol/L: unit not given here; settings: for half-life at 1 μmol/L: read-out: HLM T1/2
Method: as §1
To evaluate the metabolic stability of compounds S1–S15 and Zuranolone in RLM and HLM, we designed the following in vitro liver microsome metabolism assay protocol. In a 1.5 mL centrifuge tube, sequentially add 173 μL of PBS (0.1 M, pH 7.4), 5 μL of liver microsomes (20 mg/mL), and 2 μL of the test compound (100 μmol/L). After thorough mixing, pre-incubate at 37 °C for 10 min. Subsequently, add 20 μL of NADPH to initiate the metabolism, with a parallel control without NADPH, to validate the background signal. Samples were collected at 0, 5, 10, 20, 30, and 60 min post-reaction initiation. At each designated time point, we quenched the reaction with ice-cold acetonitrile (600 μL). After centrifuging the mixture, we analyzed the supernatant using UPLC-MS/MS. For data analysis, the compound concentration at 0 min was set as 100%, with concentrations at subsequent time points expressed as residual percentages relative to the initial value, and the in vitro half-life (T1/2) and intrinsic clearance (CLint) were calculated.

| Structure (SMILES) | pIC50 (CYP1A2) | AUCBrain 0–t [1] | Brain concentration ([1]; 0.5 h) | Brain concentration ([1]; 2 h) [nmol/kg] | Brain concentration ([1]; 6 h) | Brain concentration ([1]; 24 h) | half-life at 1 μmol/L ([2]; pH 7.4, human liver microsomes) [h] | pIC50 (CYP1A2; human liver CYP isoenzymes, pooled HLM, read-out: CYP IC50: 1A2) | F AUCBrain 0–t S9/Zuranolone (relative brain bioavailability) [1] [%] | fold longer T1/2 than Zuranolone ([2]; HLM) [fold] | fold lower CLint than Zuranolone ([2]; HLM) [fold] | microsomal CLint at 1 μmol/L ([2]; pH 7.4, human liver microsomes) |
| --- | --- | --- | --- | --- | --- | --- | --- | --- | --- | --- | --- | --- |
| C[C@@]1(O)CC[C@H]2[C@H](CC[C@@H]3[C@@H]2CC[C@]2(C)[C@@H](C(=O)Cn4cc(C#N)cn4)CC[C@@H]32)C1 [Zuranolone] | < 4.52 | 9549 nmol·h/kg and 9549 ± 2529 nmol·h/kg | 3103 nmol/kg and 3103 ± 795 nmol/kg | 2220 ± 574 | 193 nmol/kg and 193 ± 56 nmol/kg | below the quantification limit (BQL); also recorded: BQL ^b | 2.07 | – | – | – | – | – |
| C[C@@]1(O)CC[C@H]2[C@H](CC[C@@H]3[C@@H]2CC[C@]2(C)[C@@H](C(=O)Cn4cnn(-c5ccnc(OCC(F)(F)F)c5)c4=O)CC[C@@H]32)C1 [S9] | – | 30,969 nmol/kg·h and 30,969 ± 8450 nmol/kg·h | 189 nmol/kg and 189 ± 30 nmol/kg | 1895 ± 593 | 2132 nmol/kg and 2132 ± 683 nmol/kg | 175 nmol/kg and 175 ± 35 nmol/kg | 2.57 | < 4.52 | 324 | 1.2 | 1.2 | 9000 |
